From publication PMC6736568, “Discovery of Novel Anti-cryptosporidial Activities From Natural Products by in vitro High-Throughput Phenotypic Screening” (Frontiers in Microbiology, 2019)
Where a name gives a salt, the structure may show the parent alone. Read-outs that look alike come from different tables or passages of the source.

Experiments:
Cryptosporidium parvum = test: qRT-PCR assay of the growth of C. parvum in vitro in HCT-8 host cells (primary and secondary screening, EC50); type: cell-based; settings: Cryptosporidium parvum, HCT-8; for inhibition at 10 µM: primary screening at 10 uM, read-out: Inhibition (%); for inhibition at 3.3 µM: secondary screening at 3.3 uM, read-out: % Inhibition (3.3 uM)
[1] = primary screening at 10 uM, treated vs control

| Hs18S ΔCT (HCT-8 host cells (Hs18S); human, 41 h, 10 μM) | SMILES | inhibition at 10 µM (Cryptosporidium parvum) | cytotoxicity at 41 h, 10 µM (in vitro; human) | Hs18S ΔCT (HCT-8 host cells (Hs18S); [1]) | cytotoxicity at 10 µM (in vitro) | inhibition at 3.3 µM (Cryptosporidium parvum) | cytotoxicity at 41 h, 10 µM (in vitro) |
| --- | --- | --- | --- | --- | --- | --- | --- |
| -0.31 | COc1ccc(C(C)=O)c(OC)c1 [PEONOL METHYL ETHER] | 18.9% | -24.3% | – | – | – | – |
| 0.37 | COc1c(-c2coc3cc4c(cc3c2=O)CC(OC(C)=O)C(C)(C)O4)ccc2c1C=CC(C)(C)O2 (stereo not drawn) [MUNDULONE ACETATE] | -3.19% | 22.6% | – | – | – | – |
| -0.57 | O=C(O)/C=C/C=C/c1ccccc1 [JUAREZIC ACID] | -55.9% | -48.4% | – | – | – | – |
| -0.19 | O=C(O)[C@@H](O)[C@H](O)[C@H](O)[C@@H](O)C(=O)O [MUCIC ACID] | -14.3% | -13.8% | – | – | – | – |
| 0.04 | CC1=C(/C=C/C(C)=C/C=C/C(C)=C/C=C/C=C(C)/C=C/C=C(C)/C=C/C2=C(C)CCCC2(C)C)C(C)(C)CCC1 [beta-CAROTENE] | -34.8% | 2.8% | – | – | – | – |
| -0.16 | O=C1C=C(O)C(=O)c2ccccc21 [LAWSONE] | -46.1% | -12% | – | – | – | – |
| 0.65 | CC(=O)O[C@H]1C(=O)[C@@]2(C)[C@H]([C@H](OC(=O)c3ccccc3)[C@]3(O)C[C@H](OC(=O)[C@H](O)[C@@H](NC(=O)c4ccccc4)c4ccccc4)C(C)=C1C3(C)C)[C@]1(OC(C)=O)CO[C@@H]1C[C@@H]2O [PACLITAXEL] | 86.6% | 36.1% | – | – | 93% | – |
| -0.58 | O=C(O)CCCCCCCCCCCC[C@@H]1C=CCC1 [CHAULMOOGRIC ACID] | -4.94% | -49.1% | – | – | – | – |
| 0.22 | O=c1[nH]cnc2nc[nH]c12 [HYPOXANTHINE] | 23.2% | 14.3% | – | – | – | – |
| 0.58 | OCc1ccccc1O[C@@H]1O[C@H](CO)[C@@H](O)[C@H](O)[C@H]1O [SALICIN] | 37.1% | 32.9% | – | – | – | – |

Continued, compound first:

| SMILES | Hs18S ΔCT (HCT-8 host cells (Hs18S); human, 41 h, 10 μM) | inhibition at 10 µM (Cryptosporidium parvum) | cytotoxicity at 41 h, 10 µM (in vitro; human) | Hs18S ΔCT (HCT-8 host cells (Hs18S); [1]) | cytotoxicity at 10 µM (in vitro) | inhibition at 3.3 µM (Cryptosporidium parvum) | cytotoxicity at 41 h, 10 µM (in vitro) |
| --- | --- | --- | --- | --- | --- | --- | --- |
| COc1ccc(-c2oc3c(CC=C(C)C)c(O[C@@H]4O[C@H](CO)[C@@H](O)[C@H](O)[C@H]4O)cc(O)c3c(=O)c2O[C@@H]2O[C@@H](C)[C@H](O)[C@@H](O)[C@H]2O)cc1 [ICARIIN] | -0.22 | -12.3% | -16.4% | – | – | – | – |
| C[C@H]1O[C@@H](O[C@H]2[C@@H](O)C[C@H](O[C@H]3[C@@H](O)C[C@H](O[C@H]4CC[C@@]5(C)[C@H](CC[C@@H]6[C@@H]5CC[C@]5(C)[C@@H](C7=CC(=O)OC7)[C@@H](O)C[C@]65O)C4)O[C@@H]3C)O[C@@H]2C)C[C@H](O)[C@@H]1O [GITOXIN] | – | 35.4% | – | 0.08 | 5.4% | – | – |
| OC[C@H]1O[C@@H](Oc2ccc(O)cc2)[C@H](O)[C@@H](O)[C@@H]1O [ARBUTIN] | 0.01 | 16.1% | 0.5% | – | – | – | – |
| CCOc1ccc(C(=O)c2ccc(O)c(O)c2O)cc1 [2,3,4-TRIHYDROXY-4'-ETHOXYBENZOPHENONE] | 0.22 | -43.7% | 14.4% | – | – | – | – |
| CC(=O)c1c(O)c(C)c(O)c2c1OC1=CC(=O)C(C(C)=O)C(=O)C12C (stereo not drawn) [USNIC ACID] | – | 18.8% | – | -0.31 | -23.9% | – | – |
| COc1cc(O)c(C(=O)c2ccccc2)cc1O [CEAROIN] | -0.27 | -22.5% | -21% | – | – | – | – |
| C=CCc1ccc(OC)cc1 [ESTRAGOLE] | – | 99.6% | – | -0.22 | -16.6% | 15% | – |
| CC(=O)O[C@@H]1C[C@@]23C[C@@]24CC[C@H](O[C@@H]2OC[C@@H](O)[C@H](O)[C@H]2O)C(C)(C)[C@@H]4CC[C@H]3[C@]2(C)C[C@@H]3O[C@]4(C[C@@H](C)[C@@H]3[C@@]12C)O[C@H](O)[C@@]1(C)O[C@@H]41 [ACTEIN] | – | 3.9% | – | -0.41 | – | – | -33.3% |
| COc1ccc(-c2cc(=O)c3ccccc3o2)cc1 [4'-METHOXYFLAVONE] | – | 44.4% | -6.3% | -0.09 | – | – | – |
| CCCCCCCCCc1ccc(O)cc1 [4-NONYLPHENOL] | – | 83.1% | – | 0.14 | 9.2% | -181% | – |
| C=C[C@@H](C1=CC(=O)C(OC)=C(OC)C1=O)c1ccccc1 [3,4-DIMETHOXYDALBERGIONE] | 0.06 | 11.6% | 3.8% | – | – | – | – |
| C[N+](C)(C)CC(=O)O [BETAINE HYDROCHLORIDE] | -0.38 | 19.9% | -30% | – | – | – | – |
| CC(C)(C#N)O[C@@H]1O[C@H](CO)[C@@H](O)[C@H](O)[C@H]1O [LINAMARIN] | – | 6.23% | 33.5% | 0.59 | – | – | – |
